The values below come from US11919918B2, “P2X3 andor P2X2/3 receptor antagonist, pharmaceutical composition comprising same, and use thereof” (BEIJING TIDE PHARMACEUTICAL CO., LTD., priority 2017, dated 2024).

Test [1] addresses human P2X3 receptor (Homo sapiens (Human), UniProt P56373). As to the kind of experiment: Inhibitory activity on human P2X3 receptor (calcium 6 dye FLIPR assay, agonist α,β-MeATP). The settings on record: HEK293-P2X3 stably expressing cell line, FLIPR Tetra. In kind it is cell-based. As to the method: (§1) Biological Assay: Determination of the Inhibitory Activity of the Compounds on Human P2X3 and P2X2/3 Receptors
(§2) Cells were seeded into a poly-D-lysine-coated 384-well cell culture plate (Corning) at a density of 11,000 cells/well/25 μL of cell inoculation medium, and were cultured in a cell incubator overnight. On the day of the test, the calcium 6 dye was diluted to a 2× concentration with a assay buffer, 25 μL of the 2× calcium 6 dye was added to the 384-well cell culture plate, which was incubated at 37° C. for 2 hours, and then placed at room temperature for further use. The test compound and the agonist, α,β-MeATP were diluted to a 7× concentration with the assay buffer, 10 μL of the 7× test compound was added to the 384-well cell culture plate, which was incubated at room temperature for 15 minutes, and 10 μL of the 7× α,β-MeATP was transferred into the 384-well cell culture plate. The data were measured and analyzed using FLIPR Tetra, and the half inhibitory concentration (IC50) of the test compound on P2X3 and P2X2/3 receptors was calculated with the GraphPad Prism four-parameter equation.
(§3) Cell lines: human embryonic kidney cells HEK293-P2X3 and HEK293-P2X2/3 stably expressing cell lines;
(§4) Complete cell culture medium: DMEM High Glucose (Life Technology), which contained 10% fetal bovine serum, 4 mM GlutaMAX, 1% penicillin-streptomycin, and 350 μg/mL G418;
(§5) Cell inoculation medium: DMEM High Glucose (Life Technology), which contained 2% fetal bovine serum, and 4 mM GlutaMAX;
(§6) Cell culture conditions: 37° C., 5% CO2;
(§7) Assay buffer: HBSS (containing calcium and magnesium ions), which contained 20 mM HEPES;
(§8) Detection equipment: FLIPR Tetra (Molecular Devices);

Test [2] addresses human P2X2/3 receptor (Homo sapiens (Human), UniProt P56373+Q9UBL9). Kind of test: Inhibitory activity on human P2X2/3 receptor (calcium 6 dye FLIPR assay, agonist α,β-MeATP). In kind it is cell-based. The following applies: HEK293-P2X2/3 stably expressing cell line, FLIPR Tetra. As to the method:
as §1, §2, §3, §4, §5, §6, §7, §8

Sequence of human P2X3 receptor (P56373 whole entry): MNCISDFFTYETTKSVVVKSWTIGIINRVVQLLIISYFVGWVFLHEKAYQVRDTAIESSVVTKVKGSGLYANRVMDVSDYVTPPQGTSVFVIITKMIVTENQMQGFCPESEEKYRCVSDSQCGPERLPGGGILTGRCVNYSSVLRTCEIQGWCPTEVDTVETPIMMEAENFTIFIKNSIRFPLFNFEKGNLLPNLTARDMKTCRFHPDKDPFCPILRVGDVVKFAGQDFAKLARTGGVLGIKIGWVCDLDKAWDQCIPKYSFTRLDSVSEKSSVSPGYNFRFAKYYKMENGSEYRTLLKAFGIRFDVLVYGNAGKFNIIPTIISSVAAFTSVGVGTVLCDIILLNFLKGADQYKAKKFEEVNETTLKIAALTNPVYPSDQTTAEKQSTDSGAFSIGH
Sequence of human P2X2/3 receptor (Q9UBL9 whole entry): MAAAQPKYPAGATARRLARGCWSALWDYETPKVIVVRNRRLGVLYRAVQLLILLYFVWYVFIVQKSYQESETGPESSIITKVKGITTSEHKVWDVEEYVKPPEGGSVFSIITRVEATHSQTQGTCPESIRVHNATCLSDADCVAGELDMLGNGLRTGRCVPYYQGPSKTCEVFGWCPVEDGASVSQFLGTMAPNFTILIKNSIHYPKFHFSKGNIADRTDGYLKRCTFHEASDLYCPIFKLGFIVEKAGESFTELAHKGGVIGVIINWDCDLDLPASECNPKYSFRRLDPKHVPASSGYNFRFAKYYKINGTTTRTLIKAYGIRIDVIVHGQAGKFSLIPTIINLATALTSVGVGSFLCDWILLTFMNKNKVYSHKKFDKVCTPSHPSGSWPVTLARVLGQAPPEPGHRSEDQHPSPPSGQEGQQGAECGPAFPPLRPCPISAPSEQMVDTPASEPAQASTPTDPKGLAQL
Sequence of human P2X2/3 receptor (P56373 whole entry): as the sequence (P56373 whole entry) above

`CSc1cc(Sc2cnc(N)nc2N)c(C(C)C)cn1` [Compound C91, 5-((5-isopropyl2-(methylthio)pyridin-4-yl)thio) pyrimidine-2,4-diamine]: the IC50 came to 227 nM in test [1] and 271 nM in test [2].

As to `Cc1cc(Sc2cnc(N)nc2N)c(C(C)C)cn1` [Compound C92, 5-((5-isopropyl-2-methylpyridin-4-yl)thio) pyrimidine-2,4-diamine], the IC50 stood at 109 nM in test [1] and 222 nM in test [2].

For `C=Cc1cc(Sc2cnc(N)nc2N)c(C(C)C)cn1` [Compound C95, 5-((5-isopropyl-2-vinylpyridine-4-yl)thio)pyrimidine-2,4-diamine], the IC50 in test [1] amounted to 138 nM; in test [2], 163 nM.

Regarding `CC(C)c1cnc(Br)cc1Oc1cnc(NC(CO)CO)nc1N` [Compound C111, 2-((4-amino-5-((2-bromo-5-isopropyl-pyridin-4-yl)oxy)pyrimidin-2-yl)amino) propane-1,3-diol], the figures for the IC50 in test [1] and in test [2] were 104 nM and 129 nM, respectively.

On to `CCSc1cc(Oc2cnc(N)nc2N)c(C(C)C)cn1` [Compound C117, 5-((2-(ethylthio)-5-isopropylpyridin-4-yl)oxy)pyrimidine-2,4-diamine], for which the half-inhibitory concentration (IC50) was 151 nM in test [1] and 487 nM in test [2].

With `CCNc1cc(Oc2cnc(N)nc2N)c(C(C)C)cn1` [Compound C118, 5-((2-(ethylamino)-5-isopropylpyridin-4-yl)oxy) pyrimidine-2,4-diamine], the IC50 in test [1] worked out at 142 nM; in test [2] it was 366 nM.

For the compound `CC(C)c1cnc(NC2CC2)cc1Oc1cnc(N)nc1N` [Compound C119, 5-((2-(cyclopropylamino)-5-isopropylpyridin-4-yl)oxy)pyrimidine-2,4-diamine], the values for the IC50 in test [1] and in test [2] were 540 nM and 505 nM, respectively.

On to `CCc1cc(Sc2cnc(N)nc2N)c(C(C)C)cn1` [Compound C127, 5-((2-ethyl-5-isopropylpyridin-4-yl)thio)pyrimidine-2,4-diamine], for which the values for the IC50 in test [1] and in test [2] were 147 nM and 234 nM, respectively.

Regarding `CC(C)c1cnc([Si](C)(C)C)cc1Oc1cnc(N)nc1N` [Compound C133, 5-((5-isopropyl-2-(trimethylsilyl)pyridin-4-yl)oxy)pyrimidine-2,4-diamine], the IC50 came out at 1440 nM in test [1] and 770 nM in test [2].

`CC#Cc1cc(Oc2cnc(N)nc2N)c(C(C)C)cn1` [Compound C134, 5-((5-isopropyl-2-(prop-1-yn-1-yl)pyridin-4-yl)oxy) pyrimidine-2,4-diamine]: the values for the IC50 in test [1] and in test [2] were 391 nM and 685 nM, respectively.

As for `CC(C)c1cnc(C#Cc2ccccc2)cc1Oc1cnc(N)nc1N` [Compound C135, 5-((5-isopropyl-2-(phenyl-ethynyl)pyridin-4-yl)oxy) pyrimidine-2,4-diamine], the figures for the IC50 in test [1] and in test [2] were 303 nM and 488 nM, respectively.

For the compound `COc1ccc(C#Cc2cc(Oc3cnc(N)nc3N)c(C(C)C)cn2)cc1` [Compound C136, 5-((5-isopropyl-2-((4-methoxyphenyl)ethynyl)pyridin-4-yl)oxy) pyrimidine-2,4-diamine], the concentration for half-maximal inhibition (IC50) turned out to be 270 nM in test [1] and 416 nM in test [2].

For the compound `CC(C)c1cnc(C#Cc2ccc(C#N)cc2)cc1Oc1cnc(N)nc1N` [Compound C137], the IC50 in test [1] was 503 nM; in test [2], 567 nM.

As to `CC(C)c1cnc(C#CC2CC2)cc1Oc1cnc(N)nc1N` [Compound C142, 5-((2-(cyclo-propylethynyl)-5-isopropylpyrdin-4-yl)oxy) pyrimidine-2,4-diamine], the 50% inhibitory concentration (IC50) is 302 nM in test [1] and 549 nM in test [2].

With `COc1cc(OC)c(C#Cc2cc(Oc3cnc(N)nc3N)c(C(C)C)cn2)c(OC)c1` [Compound C145, 5-((5-isopropyl-2-((2,4,6-trimethoxyphenyl)ethynyl)pyridin-4-yl)oxy)pyrimidine-2,4-diamine], the results for the IC50 in test [1] and in test [2] were 809 nM and 623 nM, respectively.

Consider `CC(C)c1cnc(C#Cc2ccc(N(C)C)cc2)cc1Oc1cnc(N)nc1N` [Compound C148, 5-((2-((4-(dimethylamino)phenyl)ethynyl)-5-isopropylpyridin-4-yl)oxy) pyrimidine-2,4-diamine], for which the concentration for half-maximal inhibition (IC50) in test [1] is 215 nM; in test [2], 113 nM.

For the compound `CC(C)c1cnc(C#Cc2cccc3cccnc23)cc1Oc1cnc(N)nc1N` [Compound C149, 5-((5-isopropyl-2-(quinolin-8-ylethynyl)pyridin-4-yl)oxy)pyrimidine-2,4-diamine], the IC50 in test [1] was 130 nM; in test [2] it was 266 nM.

With `CC(C)c1cnc(C#Cc2ccccn2)cc1Oc1cnc(N)nc1N` [Compound C150, 5-((5-isopropyl-2-(pyridin-2-ylethynyl)pyridin-4-yl)oxy)pyrimidine-2,4-diamine], the IC50 came out at 211 nM in test [1] and 232 nM in test [2].

In the case of `CC(C)c1cnc(C#Cc2ccncc2)cc1Oc1cnc(N)nc1N` [Compound C151, 5-((5-isopropyl-2-(pyridin-4-ylethynyl)pyridin-4-yl)oxy)pyrimidine-2,4-diamine], the IC50 is 590 nM in test [1] and 961 nM in test [2].

Consider `CC(C)c1cnc(NCC(F)(F)F)cc1Oc1cnc(N)nc1N` [Compound C152], for which the IC50 in test [1] was 211 nM; in test [2], 375 nM.

Consider `CC(C)c1cnc(Br)cc1Oc1cnc(N)nc1NC(CO)CO` [Compound C153, 2-((2-amino-5-((2-bromo-5-isopropylpyridin-4-yl)oxy)pyrimidin-4-yl)amino) propane-1,3-diol], for which the IC50 in test [1] came out at 83 nM; in test [2], 96 nM.

Take `CCN(C)CCNc1nc(N)ncc1Oc1cc(Br)ncc1C(C)C` [Compound C154, 5-((2-bromo-5-isopropylpyridin-4-yl)oxy)-N^4-(2-(ethyl(methyl)amino)ethyl)pyrimidine-2,4-diamine]: the values for the IC50 in test [1] and in test [2] were 72 nM and 46 nM, respectively.

As for `CC(C)c1cnc(CN)cc1Oc1cnc(N)nc1N` [Compound C157, 5-((2-(aminomethyl)-5-isopropylpyridin-4-yl)oxy)pyrimidine-2,4-diamine], the IC50 in test [1] came to 736 nM; in test [2], 978 nM.

Consider `C=Cc1cnc(OC)cc1Oc1cnc(N)nc1N` [Compound C162, 5-((2-methoxy-5-vinylpyridin-4-yl)oxy) pyrimidine-2,4-diamine], for which the IC50 in test [1] was 296 nM; in test [2], 429 nM.

As for `C=C(C)c1cnc(OC)cc1Oc1cnc(N)nc1N` [Compound C164, 5-((2-methoxy-5-(prop-1-en-2-yl)pyridin-4-yl)oxy) pyrimidine-2,4-diamine], the IC50 is 46 nM in test [1] and 71 nM in test [2].

As for `CCc1cnc(OC)cc1Oc1cnc(N)nc1N` [Compound C165, 5-((5-ethyl-2-methoxy-pyridin-4-yl)oxy) pyrimidine-2,4-diamine], the 50% inhibitory concentration (IC50) in test [1] is 163 nM; in test [2], 338 nM.

As for `CNc1nc(N)ncc1Oc1cc(Br)ncc1C(C)C` [Compound C172, 5-((2-bromo-5-isopropylpyridin-4-yl)oxy)-N^4-methyl-pyrimidine-2,4-diamine], the IC50 in test [1] stood at 116 nM; in test [2], 209 nM.

As to `CCNc1nc(N)ncc1Oc1cc(Br)ncc1C(C)C` [Compound C173, 5-((2-bromo-5-isopropylpyridin-4-yl)oxy)-N^4-ethylpyrimidine-2,4-diamine], the IC50 amounted to 188 nM in test [1] and 259 nM in test [2].

`CC(C)Nc1nc(N)ncc1Oc1cc(Br)ncc1C(C)C` [Compound C174, 5-((2-bromo-5-isopropylpyridin-4-yl)oxy)-N^4-isopropyl-pyrimidine-2,4-diamine]: the concentration for half-maximal inhibition (IC50) in test [1] is 100 nM; in test [2], 145 nM.

In the case of `CC(C)c1cnc(Br)cc1Oc1cnc(N)nc1NCCO` [Compound C175, 2-((2-amino-5-((2-bromo-5-isopropylpyridin-4-yl)oxy)pyrimidin-4-yl)amino)ethanol.], the values for the IC50 in test [1] and in test [2] were 108 nM and 141 nM, respectively.

For `COc1cc(Oc2cnc(N)nc2N)c(C)cn1` [Compound C176, 5-((2-methoxy-5-methylpyridin-4-yl)oxy) pyrimidine-2,4-diamine], the results for the IC50 in test [1] and in test [2] were 611 nM and 984 nM, respectively.

As to `CC(C)c1cnc(Br)cc1Oc1cnc(N)nc1NC1CC1` [Compound C179, 5-((2-bromo-5-isopropylpyridin-4-yl)oxy)-N^4-cyclopropyl-pyrimidine-2,4-diamine], the IC50 in test [1] was 51 nM; in test [2], 43 nM.

With `CC(C)c1cnc(Br)cc1Oc1cnc(N)nc1NC1CCCCC1` [Compound C180, 5-((2-bromo-5-isopropylpyridin-4-yl)oxy)-N^4-cyclohexyl-pyrimidine-2,4-diamine], the IC50 stood at 207 nM in test [1] and 220 nM in test [2].

On to `CC(C)CNc1nc(N)ncc1Oc1cc(Br)ncc1C(C)C` [Compound C181, 5-((2-bromo-5-isopropylpyridin-4-yl)oxy)-N^4-isobutyl-pyrimidine-2,4-diamine], for which the figures for the IC50 in test [1] and in test [2] were 84 nM and 78 nM, respectively.

Broadly, the IC50 is the concentration at which inhibition is half-maximal.
